{"source": "patent US10865236B2", "about": "“Bispecific antigen-binding molecules that bind a staphylococcus target antigen and a complement component and uses thereof” (priority 2017, dated 2020)", "system": "S. aureus MW2", "experiment": "Mouse MRSA bacteremia model: bispecific antibody alone or in combination with linezolid, kidney, lung and heart burden Day 4", "assay_type": "in vivo, Humanized C1q (C1q^Hu/Hu) mice", "experimental": "The bacteremia model described above in Example 12 was used to evaluate the activity of an anti-IsdB× anti-C1q bispecific antibody against S. aureus MRSA strains in reducing bacterial burden when used in combination with a standard-of-care antibiotic.\nHumanized C1q (C1q^Hu/Hu) mice were infected intraperitoneally with 1.3×10^8 colony forming units (CFUs) per mouse of S. aureus MW2 in a volume of 200 ul. S. aureus MW2 was grown to log phase, OD600≤1, in TSB at 37° C. and washed 3 times in PBS and adjusted to the desired density for infection. Starting at eighteen (18) hours following infection, 2 groups of mice (n=5) were treated with 80 mg/kg of linezolid by oral gavage (200 ul volume), twice daily on Days 1, 2 and 3. […] Mice were weighed daily until Day 4 post infection and change in weight was recorded. Mice were euthanized on Day 4 and kidneys, lungs and hearts were collected to determine organ burden. Briefly, the organs were homogenized in 5 mL PBS using gentleMACS Octo Dissociator (Miltenyi Biotec) using programme-E. The tissue homogenates were then diluted in PBS and multiple 10-fold serial dilutions were plated on LB agar plates and incubated at 37° C. overnight. The next day, individual colonies were counted to determine bacterial burden and results were reported as CFUs/gram tissue."}
{"smiles": "CC(=O)NC[C@H]1CN(c2ccc(N3CCOCC3)c(F)c2)C(=O)O1", "note": "[linezolid, reference compound]", "values": [{"measurement": "log reduction in overall CFUs, lung", "setting": "MW2", "value": 2, "unit": "log"}, {"measurement": "log reduction in overall CFUs, kidneys", "setting": "MW2, compared to infection control (8.5 logs)", "value": "less than 2 log"}, {"measurement": "log CFU reduction, heart", "setting": "MW2, limit of detection 10^3 CFU", "value": 3, "unit": "log"}, {"measurement": "CFUs/g heart", "setting": "single agent (H1H20631D 100 ug/mouse, Antibiotic None; or Linezolid, no antibody), heart", "value": "2.08E+05", "unit": "CFUs/g"}, {"measurement": "CFUs/g kidney", "setting": "single agent (H1H20631D 100 ug/mouse, Antibiotic None; or Linezolid, no antibody), kidney", "value": "6.99E+06", "unit": "CFUs/g"}, {"measurement": "CFUs/g lung", "setting": "single agent (H1H20631D 100 ug/mouse, Antibiotic None; or Linezolid, no antibody), lung", "value": "6.98E+05", "unit": "CFUs/g"}]}
